Key:
endogenous AR = target: T1, endogenous AR (Mus musculus, UniProt P19091); assay: In vivo AR degradation in LABC muscle of C57Bl/6 mice (mouse AR ELISA), PK/PD
T1 construct: from tissue; host or cells: mouse LABC muscle (C57Bl/6 and hAR100Q mice); quadriceps (hAR100Q mice)
T1 sequence (P19091 1-899): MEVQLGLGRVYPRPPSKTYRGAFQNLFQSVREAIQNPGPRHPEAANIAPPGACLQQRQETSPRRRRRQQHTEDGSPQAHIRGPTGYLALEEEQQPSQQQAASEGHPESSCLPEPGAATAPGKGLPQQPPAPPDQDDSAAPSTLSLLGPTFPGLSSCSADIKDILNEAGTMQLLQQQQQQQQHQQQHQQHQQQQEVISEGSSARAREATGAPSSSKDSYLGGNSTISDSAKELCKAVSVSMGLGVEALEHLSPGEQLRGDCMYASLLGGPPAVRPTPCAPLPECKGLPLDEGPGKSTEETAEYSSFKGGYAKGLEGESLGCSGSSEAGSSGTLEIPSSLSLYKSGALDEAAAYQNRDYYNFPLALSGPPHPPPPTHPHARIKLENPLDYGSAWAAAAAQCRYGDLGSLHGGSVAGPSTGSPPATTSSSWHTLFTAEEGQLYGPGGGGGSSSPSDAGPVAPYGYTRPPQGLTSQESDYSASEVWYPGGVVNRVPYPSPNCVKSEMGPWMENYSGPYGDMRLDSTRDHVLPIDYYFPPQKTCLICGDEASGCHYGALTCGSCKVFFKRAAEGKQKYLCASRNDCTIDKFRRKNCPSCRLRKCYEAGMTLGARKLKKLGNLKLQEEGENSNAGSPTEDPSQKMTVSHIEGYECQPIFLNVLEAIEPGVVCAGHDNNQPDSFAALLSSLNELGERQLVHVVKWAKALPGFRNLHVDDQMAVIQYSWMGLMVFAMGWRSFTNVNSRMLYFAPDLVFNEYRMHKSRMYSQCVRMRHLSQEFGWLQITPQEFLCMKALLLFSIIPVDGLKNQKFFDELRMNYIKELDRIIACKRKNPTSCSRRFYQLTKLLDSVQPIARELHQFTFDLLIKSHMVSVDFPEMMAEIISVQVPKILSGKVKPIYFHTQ
Description: Using six- to eight-week-old C57Bl/6 male mice, chow and water were provided ad libitum. Compounds were administered by oral gavage at the indicated dose using 5% dimethyl sulfoxide (DMSO), 95% (2% Tween 80, PEG 400) as the vehicle. Mice were euthanized by using Isoflurane inhalation (2-4% induction) followed by decapitation 24 hours post dose unless otherwise indicated. The levator ani/bulbocavernosus (LABC) muscle was dissected and immediately snap frozen and stored at −80° C. prior to analysis. Compound exposure was measured in serum and muscle lysates.
Anti-androgen receptor rabbit polyclonal antibody, clone PG-21 (Millipore; 06-680), was diluted in BupH carbonate-bicarbonate buffer (Thermo; 28382) to a concentration of 2 μg/mL and coated onto 96-well ELISA plates by incubating 50 μL per well overnight at 37° C. Plates were washed 4× with tris-buffered saline (TBS) buffer containing 0.1% Tween-20 (TBS-0.1% T) and blocked with 3% bovine serum albumin in TBS-T for 3 hours at room temperature (200 μL per well). AR peptide standard (Creative Biomart; Cat. No. AR-9788H) and samples were diluted in 1% bovine serum albumin (BSA)/TBS-0.05% T. After the blocking period, plates were washed as above, and 50 μL of standard and samples were added. Plates were incubated overnight at 4° C. with shaking. Following the incubation period, the plates were allowed to acclimate to room temperature with shaking for 1 hour. The detection antibody (anti-AR antibody, clone EPR1535 (abcam; ab194196)), conjugated to horse radish peroxidase (HRP), was diluted 1:15000 in 1% BSA/TBS-0.05% T and co-incubated with the samples by adding 50 μL to each well and shaking for 2 hours at room temperature. Plates were washed as above. Chemiluminescent substrate (ELISABright; Advansta; K-16025) was added to the plates (100 μL per well).
In vivo degradation of endogenous AR was evaluated for 95 compounds in murine levator ani/bulbocavernosus (LABC) muscle using a 30 mg/kg PO dose (see Example 1). The observed AR degradation for these 95 compounds ranged from 0-85% of AR in mouse LABC.

[1] = Free fraction in mouse plasma; assay type: in vitro ADME

**Q.** Which results are given for `CC(C)N(CC1CCN(c2ncc(C(=O)N[C@H]3C(C)(C)[C@H](Oc4ccc(C#N)c(Cl)c4)C3(C)C)cn2)CC1)[C@H]1C[C@H](Oc2ccc3c(c2)C(=O)N(C2CCC(=O)NC2=O)C3=O)C1` (stereo partly shown) [Compound A, N-((1r,3r)-3-(3-chloro-4-cyanophenoxy)-2,2,4,4-tetramethylcyclobutyl)-2-(4-((((1r,3r)-3-((2-(2,6-dioxopiperidin-3-yl)-1,3-dioxoisoindolin-5-yl)oxy)cyclobutyl)(isopropyl)amino)methyl)piperidin-1-yl)pyrimidine-5-carboxamide]?
**A.** time for AR levels in LABC muscle to return to normal post administration (endogenous AR; 30 mg/kg, once per day (QD) for 3 days): about 3 days; time for AR to return to basal levels in LABC muscle (endogenous AR; mouse LABC muscle): 48 to 72 h; dose that achieves AR degradation of ~50% (endogenous AR; mouse muscle): About 10 mg/kg; fraction unbound [1]: 0.0044
